Patent US4699928A, “Fluoroallylamine derivatives” (Merrell Dow Pharmaceuticals Inc., priority 1986, dated 1987)

How the values were obtained:
MAO-B = assay: Inhibition of MAO ex vivo, phenethylamine as substrate (MAO-B); assay type: in vivo, male Sprague-Dawley rats; settings: for % Inhibition, Brain (2) / % Inhibition, Duodenum (2) / % Inhibition, Heart (2) / % Inhibition, Liver (2): 18 h, 14C phenethylamine
Procedure: The ability of a compound of Formula I to inhibit MAO can be determined ex vivo by the following procedure:
The test compound is administered orally (p.o.) to 300-350 g male Sprague-Dawley rats (Charles River, France) and the animals are killed 18 hours after treatment. The brain, heart, liver and/or duodenum is removed and either a crude homogenate or a mitochondrial fraction, described in Example 5, Part (A), is prepared. MAO activity is determined in the homogenates using ^14 C p-tyramine, as the substrate. Table III gives the results of the testing of (Z)-2-(2',4'-dichlorophenoxy)methyl-3-fluoroallylamine according to the above described procedure. Selectivity can be determined by repeating the above-described test using either ^14 C […] (for MAO-A) or ^14 C phenethylamine (for MAO-B) as the substrate for determining the percentage inhibition.

[1] = test system: heart rate response to p-tyramine; assay: Cheese effect: potentiation of response to intraduodenal p-tyramine, anaesthetized rats; assay type: in vivo, male Sprague-Dawley rats; settings: 18 h, p-tyramine i.d.
Procedure: The following test procedures can be employed to assess the potential of a compound of Formula I for producing the "cheese effect": […]
Eighteen hours later the animals are anaesthetized with pentobarbitone (60 mg/kg i.p.), in some instances pithed, and in all cases set up for recording heart rate and blood pressure by standard techniques.

MAO = assay: Time-dependent kinetics and irreversibility of MAO inhibition, rat brain mitochondria, 14C p-tyramine; assay type: biochemical
Procedure: (B) The compounds of Formula I can be tested to determine whether or not the MAO inhibition follows time-dependent kinetics by the procedure described below:
Mitochondria are prepared from rat brain by homogenation in phosphate buffer (0.1 M, pH 7.2) followed by differential centrifugation. The mitochondria are suspended in the same buffer, the test compound is added at the desired concentration, and the system is incubated. At different time intervals, aliquots are taken and MAO activity is measured using ^14 C p-tyramine (a mixed substrate) as the substrate (See A. Christmas et al., supra).

**Q.** Which results are given for `NC/C(=C/F)COc1ccc(Cl)cc1Cl` [(z)-2-(2',4'-dichlorophenoxy)methyl-3-fluoroallylamine]?
**A.** % Inhibition, Brain (2) (MAO-B; 1 mg/kg po): 85%; % Inhibition, Duodenum (2) (MAO-B; 1 mg/kg po): 73%; % Inhibition, Heart (2) (MAO-B; 1 mg/kg po): 40%; % Inhibition, Liver (2) (MAO-B; 1 mg/kg po): 57%; % Inhibition, Brain (2) (MAO-B; 2.5 mg/kg po): 90%; % Inhibition, Duodenum (2) (MAO-B; 2.5 mg/kg po): 82%; % Inhibition, Heart (2) (MAO-B; 2.5 mg/kg po): 31%; % Inhibition, Liver (2) (MAO-B; 2.5 mg/kg po): 67%; % Inhibition, Brain (2) (MAO-B; 5 mg/kg po): 93%; % Inhibition, Duodenum (2) (MAO-B; 5 mg/kg po): 95%; % Inhibition, Heart (2) (MAO-B; 5 mg/kg po): 40%; % Inhibition, Liver (2) (MAO-B; 5 mg/kg po): 89%; % Inhibition, Brain (2) (MAO-B; 10 mg/kg po): 96%; % Inhibition, Duodenum (2) (MAO-B; 10 mg/kg po): 96%; % Inhibition, Heart (2) (MAO-B; 10 mg/kg po): 40%; % Inhibition, Liver (2) (MAO-B; 10 mg/kg po): 90%; % Inhibition, Brain (2) (MAO-B; 25 mg/kg po): 98%; % Inhibition, Duodenum (2) (MAO-B; 25 mg/kg po): 98%; % Inhibition, Heart (2) (MAO-B; 25 mg/kg po): 64%; % Inhibition, Liver (2) (MAO-B; 25 mg/kg po): 95%; preferential inhibition of MAO-B in the four tissues (MAO-B; at the dose levels tested (1-25 mg/kg po)): preferential inhibition of MAO-B; inhibition of brain MAO-B (MAO-B; doses as low as 1 mg/kg p.o.): greater than 80%; Potentiation of heart rate response to p-tyramine ([1]; 5 mg/kg by mouth): 1.5 fold; Potentiation of heart rate response to p-tyramine ([1]; 10 mg/kg by mouth): 2.4 fold; Potentiation of heart rate response to p-tyramine ([1]; 25 mg/kg by mouth): 2.0 fold; MAO inhibitory activity versus time of incubation (MAO; 14C p-tyramine): increased as a function of time of incubation; irreversibility of MAO inhibition (MAO; dialysis against phosphate buffer (24 hours)): irreversible; initial rate of decrease of activity (MAO; versus concentration of inhibitor): increased with increasing concentration of inhibitor
